According to US20110034373A1, “USE OF AN FGF-21 COMPOUND AND A GLP-1 COMPOUND FOR THE TREATMENT OF OBESITY” (ELI LILLY AND COMPANY, priority 2007, published 2011):

B1: FGF-21: FGF-21 compound of Table 1: human FGF-21, printed as 'human FGF-2 (SEQ ID NO: 1)' (protein, listed as Homo sapiens)
chain: MDSDETGFEHSGLWVSVLAGLLGACQAHPIPDSSPLLQFGGQVRQRYLYTDDAQQTEAHLEIREDGTVGGAADQSPESLLQLKALKPGVIQILGVKTSRFLCQRPDGALYGSLHFDPEACSFRELLLEDGYNVYQSEAHGLPLHLPGNKSPHRDPAPRGPARFLPLPGLPPALPEPPGILAPQPPDVGSSDPLSMVGPSQGRSPSYAS

Tested on: Diet-induced obese (DIO) male C57/B16 mice
Assay: Effect of combination treatment with GLP-1 and FGF-21 on body weight in diet-induced obese mice
Assay type: in vivo
Settings: GLP-1 compound 3 nmol/kg/day continuous s.c. infusion (alzet pump), n=8
Description: Diet-induced obese (DIO) male C57/B16 mice (Harlan: Va.) maintained on a calorie rich diet (TD95217, Teklad, Madison, Wis.) since weaning are used, DIO is established by ad libitum feeding for at least 7 weeks of a diet consisting of 40% fat, 39% carbohydrate, and 21% protein caloric content (TD95217). Animals are individually housed in a temperature-controlled (24° C.) facility with 12 hour light/dark cycle (lights on 2200) and free access to food (TD95217) and water. After a minimum of 2 weeks acclimation to the facility, the mice are randomized according to their body weight, so each experimental group of animals would have similar body weight.
Body composition of DIO male C57/B16 mice is determined by using QNMR analysis 1 day prior to initiation of treatment. Combination treatment is administered with two delivery methods. A FGF-21 compound (1 mg/kg) is subcutaneously injected once a day and a GLP-1 compound (3 nmol/kg/day) is delivered by continuous subcutaneous infusion with alzet pump. The experimental groups are as follow: One group (“Vehicle”) of mice (n=8) receives PBS (11.4 μL/day) and a daily subcutaneous injection of 0.05 mL/10 g of PBS. Another group (“FGF-21”) of mice (n=8) receives 11.4 μL/day of PBS using the alzet pump and a daily subcutaneous injection of 1 mg/kg of FGF-21. The “GLP-1” group of mice receives 3 nmol/kg/day of a GLP-1 compound through an alzet pump and a daily subcutaneous injection of 0.05 mL/10 g of PBS. The “GLP-1+FGF-21” group of mice receives 3 nmol/kg/day of a GLP-1 compound through an alzet pump and a daily subcutaneous injection of 1 mg/kg of a FGF-21 compound. Injections occur prior to the onset of the dark photoperiod. Starting weight values are measured after implantation of alzet pumps on Day 1. Body weights are recorded in conjunction with daily dosing. Average weight changes compared to starting weights of a particular treatment group, including vehicle, are determined. Average daily weight changes are normalized to average of daily weight change of Vehicle group and are reported in Table 1 (i.e., (Average weight change of Treatment group)−(Average weight change of Vehicle group)). For all treatment groups n=8.
Data in Table 1 represent results where the FGF-21 compound is human FGF-2 (SEQ ID NO: 1) and where the GLP-1 compound is Val^8-Glu^22-Ile^33-Pro^37-Ser^38-Ser^39-Gly^40-Ala^41-Pro^42-Pro^43-Pro^44-Ser^45-GLP-1 (SEQ ID NO: 19).

[1] = Day 1 (starting weight), FGF-21 compound 1 mg/kg s.c. once a day
[2] = Day 5, FGF-21 compound 1 mg/kg s.c. once a day
[3] = Day 10, FGF-21 compound 1 mg/kg s.c. once a day
[4] = Day 15, FGF-21 compound 1 mg/kg s.c. once a day

Molecule	Average Weight Change Normalized to Vehicle Treated Mice [1]	Average Weight Change Normalized to Vehicle Treated Mice [2]	Average Weight Change Normalized to Vehicle Treated Mice [3]	Average Weight Change Normalized to Vehicle Treated Mice [4]
Val^8-Glu^22-Ile^33-Pro^37-Ser^38-Ser^39-Gly^40-Ala^41-Pro^42-Pro^43-Pro^44-Ser^45-GLP-1 (HVEGTFTSDVSSYLEEQAAKEFIAWLIKGGPSSGAPPPS)	0 g	-1.01 g	-1.99 g	-2.50 g
B1	0 g	-0.45 g	-1.94 g	-2.85 g
